Laboratory results as given in US10144730B2, “Inhibitors of c-Jun-N-terminal kinase (JNK)” (Dana-Farber Cancer Institute, Inc., priority 2011, dated 2018).
“Also recorded” adds a separate entry of the source. Read-outs that look alike come from different tables or passages of the source.

Experiments:
JNK2 = JNK2 (Homo sapiens, UniProt P45984); conditions: Table 2, *Literature values; cited from earlier work
c-Jun phosphorylation [1] = test: High throughput microscopy of c-Jun phosphorylation in A375 cells; format: cell-based; conditions: A375 cells, anisomycin stimulation, read-out: p-c-Jun EC50 (nM) A375
Protocol: (§1) Cells were fixed in 2% paraformaldehyde for 10 min at room temperature and washed with PBS-T (Phosphate Buffered Saline, 0.1% Tween 20). Cells were permeabilized in methanol for 10 min at room temperature, washed with PBS-T, and blocked in Odyssey Blocking Buffer (LI-COR Biosciences) for 1 hour at room temperature. Cells were incubated overnight at 4° C. with antibody specific for Erk1/2(pT202/pY204), Akt(pS473), c-Jun(pS73), pP38(T180/Y182) and pSTAT3(Y705) (Cell Signaling Technology), pRSK1(S380) and pMSK1(S376) (Epitomics), and NF-κB (Santa Cruz Biotechnology) diluted 1:400 in Odyssey Blocking Buffer. […] Cells were washed twice with PBS and imaged in an imageWoRx high-throughput microscope (Applied Precision). Data were plotted using DataPflex.
(§2) In parallel with biochemical evaluation, the ability of the compounds to inhibit JNK activity in cells was investigated using two independent assays formats. This is a critical issue because there are several reported JNK inhibitors with nanomolar biochemical potency that translate into micromolar cellular inhibitors. The most well characterized direct phosphorylation substrate of JNK is the transcription factor c-Jun.

JNK1 [2] = molecular target: T1, JNK1 (Homo sapiens, UniProt P45983); conditions: Table 2, *Literature values; cited from earlier work
c-Jun phosphorylation [3] = test: LanthaScreen TR-FRET cell assay for c-Jun phosphorylation in HeLa cells; format: cell-based; conditions: for EC50: Hela cells, TNF-α stimulation, read-out: p-c-Jun EC50 (nM) Hela
Protocol: Phosphorylation was determined by measuring the time resolved FRET (TR-FRET) between a terbium labeled phospho-c-Jun specific antibody and GFP. The cells were plated in white tissue culture treated 384 well plates at a density of 10,000 cell per well in 32 μL assay medium (Opti-MEM®, supplemented with 0.5% charcoal/dextran-treated FBS, 100 U/ml penicillin and 100 μg/ml streptomycin, 0.1 mM nonessential amino acids, 1 mM sodium pyruvate, 25 mM Hepes, pH 7.3, and lacking phenol red). After overnight incubation, cells were pretreated for 90 minutes with compound (at indicated concentration) diluted in 4 μL assay buffer followed by 30 min of stimulation with 5 ng/ml of TNF-α in 4 μL assay buffer (final assay volume was 40 μl). The medium was then removed by aspiration, and the cells were lysed by adding 20 μl of lysis buffer (20 mM Tris-HCl, pH 7.6, 5 mM EDTA, 1% Nonidet P-40 substitute, 5 mM NaF, 150 mM NaCl, and 1:100 protease and phosphatase inhibitor mix, SIGMA P8340 and P2850, respectively). The lysis buffer included 2 nM of the terbium-labeled anti-c-Jun (pSer73) detection antibodies (Life Technologies). After allowing the assay to equilibrate for 60 minutes at room temperature, TR-FRET emission ratios were determined on a BMG Pherastar fluorescence plate reader (BMG Labtech, Cary, N.C.) using the following parameters: excitation at 340 nm; emission at 520 nm and 490 nm; 100 μs lag time; 200 μs integration time; and emission ratio=Em520/Em490. All data were analyzed and plotted using Graphpad Prism 4.
as §2

[4] = system: 260 kinases in A375 cells; test: KiNativ cellular kinase selectivity profiling in A375 cells; format: cell-based; conditions: 1 μM, 3 hours
Protocol: FIG. 9 illustrates the cellular kinase selectivity as assessed using the KiNativ™ technology.
The kinase selectivity of several key compounds was first evaluated using a chemical proteomic approach named KiNativ which detects 260 kinases in A375 cells (ActivX Biosciences). To probe the intracellular targets of the compounds, A375 cells were incubated with the inhibitors and then looked for protection of labeling by an ATP-biotin probe that non-specifically labels conserved lysines on kinases and other nucleotide-dependent enzymes. This provided an important advantage relative to the in vitro kinase selectivity profiling because in vitro the short incubation times and presence of reactive thiols in the buffers can potentially cause false negatives for acrylamide-modified kinase inhibitors. […] Since cysteine-directed covalent kinase inhibitors will sometimes cross-react with kinases that contain an equivalently placed cysteine, a sequence alignment was performed to identify all kinases which have a cysteine near JNK1 Cys116 (FIG. 10). […] The dramatic selectivity improvement that results from introduction of this flag-methyl group has been previously reported for imatinib (Zimmermann et al., 1996).

JNK = test: Binding kinetics (pulse-chase) assay, ATP-biotin labeling of JNK in A375 cells; format: cell-based; conditions: 1 μM compound
Protocol: A375 cells were incubated with inhibitors for the indicated amount of time after which cell lysates were prepared and labeled with ATP-biotin. Biotinylated proteins were pulled down with streptavidin beads and material bound to the beads was eluted and separate by SDS-PAGE followed by Western blot analysis for JNK.
A375 cells (ATCC® CRL-1619™) were pre-treated with 1 μM compound for the indicated amounts of time. Remove the medium and wash 3 times with PBS. Resuspend the cell pellet with 1 mL Lysis Buffer (1% NP-40, 1% CHAPS, 25 mM Tris, 150 mM NaCl, Phosphatase Inhibitor Cocktail, Roche 04906845001, and Protease Inhibitor Cocktail Roche 11836170001). Rotate end-to-end for 30 min at 4° C. Lysates were cleared by centrifugation at 14000 rpm for 15 min in the Eppendorf. The cleared lysates gel filtered into Kinase Buffer (0.1% NP-40, 20 mM HEPES, 150 mM NaCl, Phosphatase Inhibitor Cocktail, and Protease Inhibitor Cocktail) using Bio-Rad 10DG colums. The total protein concentration of the gel-filtered lysate should be around 5-15 mg/ml. […]
In order to evaluate the kinetics with which JNK-IN-5 could covalently modify JNK in cells, a pulse-chase assay was developed . […] Streptavidin affinity chromatography is then used to isolate all biotinylated proteins and JNK protein is detected following SDS-PAGE and Western blotting (FIG. 8). […]

JNK3 = JNK3 (Homo sapiens, UniProt P53779); test: Biochemical JNK3 kinase inhibition (Z'-lyte format)
[5] = molecular target: additional kinase targets; test: Follow-up enzymatic IC50 or Kd on potential additional kinase targets; conditions: FIG. 12
Excerpt: Scores were obtained from the profiling against a […] using Kinome Scan™ technology as illustrated in FIG. 11.
To complement the KiNativ profiling, the in vitro kinase selectivity of several key compounds was comprehensively evaluated by two complementary approaches: a kinase-binding assays against a panel of 442 distinct kinases using the KINOMEscan methodology (DiscoverX) and a standard radioactivity-based enzymatic assays against a panel of 124 kinases (The National Centre for Protein Kinase Profiling in Dundee). […] It was attempted to confirm all these potent binding targets using either an enzymatic kinase assay or through the measurement of a dissociation constant to the kinase in question.

phosphorylation of RSK = test: High-throughput microscopy, phosphorylation of RSK; format: cell-based; conditions: Homo sapiens, A-375, A375 cells, anisomycin stimulation, read-out: Cellular EC50 pRSK
Protocol: (§3) A375 cells were stimulated with anisomycin (FIGS. 14A and 14C to 14F), IGF-1 (FIG. 14B), IL-6 (FIG. 14G), and TNF-α (FIG. 14H) for sixty minutes. The output of multiple signaling pathways was measured using high throughput microscopy at multiple concentrations of four JNK inhibitors and a control compound specific to each pathway DMSO (FIG. 14A), MK2206 (allosteric Akt inhibitor, Haoyuan Chemexpress Co., Limited. Hirai, et al., 2010) (FIG. 14B), PD0325901 (allosteric Mek inhibitor, Haoyuan Chemexpress Co., Limited. Barrett, et al., 2008) (FIGS. 14C and 14D), SB239063 (ATP-competitive p38 inhibitor, Haoyuan Chemexpress Co., Limited. Underwood et al., 2000) (FIGS. 14E and 14F), KIN001-040 (ATP-competitive JAK1,2,3 inhibitor, Haoyuan Chemexpress Co., Limited. Thompson et al., 2002) (FIG. 14G), and KIN001-208 (IKK inhibitor VIII, Haoyuan Chemexpress Co., Limited., Murata, et al., 2004) (FIG. 14H).
(§4) Cells were plated at 7500 cells/well in 96-well microscopy plates (Corning) in recommended media for 24 hours, and then starved in media lacking serum for 16 hours. Cells were pre-treated for 180 minutes with 10-fold stock solutions of JNK inhibitors and for 10 min with control compounds MK2206, PD0325901, SB239063, KIN040, and KIN208 and treated with 10-fold stock solutions of IGF-1, IL-6, TNF-α (all PeproTech), or anisomycin for 60 minutes. Cells were fixed in 2% paraformaldehyde for 10 min at room temperature and washed with PBS-T (Phosphate Buffered Saline, 0.1% Tween 20). Cells were permeabilized in methanol for 10 min at room temperature, washed with PBS-T, and blocked in Odyssey Blocking Buffer (LI-COR Biosciences) for 1 hour at room temperature. Cells were incubated overnight at 4° C. with antibody specific for Erk1/2(pT202/pY204), Akt(pS473), c-Jun(pS73), pP38(T180/Y182) and pSTAT3(Y705) (Cell Signaling Technology), pRSK1(S380) and pMSK1(S376) (Epitomics), and NF-κB (Santa Cruz Biotechnology) diluted 1:400 in Odyssey Blocking Buffer. Cells were washed three times in PBS-T and incubated with rabbit-specific secondary antibody labeled with Alexa Fluor 647 (Invitrogen) diluted 1:2000 in Odyssey Blocking Buffer. Cells were washed once in PBS-T and once in PBS and incubated in 250 ng/ml Hoechst 33342 (Invitrogen) and 1:1000 Whole Cell Stain (blue; Thermo Scientific) solution. Cells were washed twice with PBS and imaged in an imageWoRx high-throughput microscope (Applied Precision). Data were plotted using DataPflex. […]

phosphorylation of p38 = test: High-throughput microscopy, phosphorylation of p38; format: cell-based; conditions: Homo sapiens, A-375, A375 cells, anisomycin stimulation, read-out: Cellular EC50 pP38
Protocol: as §3, §4

JNK1 [6] = molecular target: T1, JNK1; test: Biochemical JNK1 kinase inhibition (Z'-lyte format); conditions: Table 2
[7] = system: panel of 442 distinct kinases; test: KINOMEscan kinase-binding panel; conditions: concentration of 1.0 μM
phosphorylation of Akt = test: High-throughput microscopy, phosphorylation of Akt; format: cell-based; conditions: Homo sapiens, A-375, A375 cells, IGF-1 stimulation, read-out: Cellular EC50 pAkt
Protocol: as §3, §4

phosphorylation of STAT3 = test: High-throughput microscopy, phosphorylation of STAT3; format: cell-based; conditions: Homo sapiens, A-375, A375 cells, IL-6 stimulation, read-out: Cellular EC50 pSTAT3
Protocol: as §3, §4

phosphorylation of Erk = test: High-throughput microscopy, phosphorylation of Erk; format: cell-based; conditions: Homo sapiens, A-375, A375 cells, anisomycin stimulation, read-out: Cellular EC50 pErk
Protocol: as §3, §4

[8] = system: NF-kB nuclear translocation; test: High-throughput microscopy, NF-kB nuclear translocation; format: cell-based; conditions: Homo sapiens, A-375, A375 cells, TNF-α stimulation, read-out: Cellular EC50 NF-kB
Protocol: as §3, §4

phosphorylation of Msk1 = test: High-throughput microscopy, phosphorylation of Msk1; format: cell-based; conditions: Homo sapiens, A-375, A375 cells, anisomycin stimulation, read-out: Cellular EC50 pMSK1
Protocol: A375 cells were stimulated with anisomycin (FIGS. 14A and 14C to 14F), IGF-1 (FIG. 14B), IL-6 (FIG. 14G), and TNF-α (FIG. 14H) for sixty minutes.
as §1

Sequence of JNK3 (P53779 whole entry): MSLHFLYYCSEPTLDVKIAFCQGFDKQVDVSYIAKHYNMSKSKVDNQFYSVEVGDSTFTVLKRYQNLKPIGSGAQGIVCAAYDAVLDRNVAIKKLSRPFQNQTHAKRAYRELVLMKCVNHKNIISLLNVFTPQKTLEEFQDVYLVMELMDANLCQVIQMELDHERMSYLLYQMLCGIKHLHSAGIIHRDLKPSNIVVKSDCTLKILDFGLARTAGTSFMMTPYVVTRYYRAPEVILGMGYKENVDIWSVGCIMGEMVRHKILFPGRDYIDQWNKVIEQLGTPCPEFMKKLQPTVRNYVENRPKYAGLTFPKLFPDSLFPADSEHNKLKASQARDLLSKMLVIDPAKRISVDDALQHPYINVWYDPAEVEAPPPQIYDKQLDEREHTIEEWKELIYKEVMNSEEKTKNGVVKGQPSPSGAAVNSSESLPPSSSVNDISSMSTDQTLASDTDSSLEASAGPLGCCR
T1 sequence (P45983 whole entry): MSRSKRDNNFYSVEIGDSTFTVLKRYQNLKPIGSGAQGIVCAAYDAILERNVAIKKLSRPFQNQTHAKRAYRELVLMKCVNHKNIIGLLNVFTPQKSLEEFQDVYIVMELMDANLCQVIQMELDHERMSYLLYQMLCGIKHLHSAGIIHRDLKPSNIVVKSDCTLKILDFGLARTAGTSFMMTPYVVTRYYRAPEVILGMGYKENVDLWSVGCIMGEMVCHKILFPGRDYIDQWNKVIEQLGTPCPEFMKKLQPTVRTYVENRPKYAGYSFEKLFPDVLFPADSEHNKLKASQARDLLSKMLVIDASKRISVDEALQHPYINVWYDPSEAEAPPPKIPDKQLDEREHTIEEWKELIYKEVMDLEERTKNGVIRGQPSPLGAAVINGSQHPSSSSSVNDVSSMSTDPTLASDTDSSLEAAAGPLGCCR
Sequence of JNK2 (P45984 whole entry): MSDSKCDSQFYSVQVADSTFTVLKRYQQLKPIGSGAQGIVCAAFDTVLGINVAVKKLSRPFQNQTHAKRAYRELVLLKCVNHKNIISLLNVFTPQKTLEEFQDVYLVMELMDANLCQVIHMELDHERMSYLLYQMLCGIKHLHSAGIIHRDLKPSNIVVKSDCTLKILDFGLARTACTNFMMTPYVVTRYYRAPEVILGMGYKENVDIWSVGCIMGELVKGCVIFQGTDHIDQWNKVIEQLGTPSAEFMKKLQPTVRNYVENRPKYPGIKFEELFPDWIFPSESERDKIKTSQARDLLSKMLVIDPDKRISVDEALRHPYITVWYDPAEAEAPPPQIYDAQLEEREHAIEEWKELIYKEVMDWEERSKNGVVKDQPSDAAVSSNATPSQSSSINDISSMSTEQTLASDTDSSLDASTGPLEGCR

N#CC(c1ccnc(NCCc2cccnc2)n1)c1nc2ccccc2s1 (centres unmarked) [AS601245, reference compound]
IC50 (JNK2): 220 nM | EC50 (c-Jun phosphorylation [1]): 2400 nM | IC50 (JNK1 [2]): 150 nM | IC50's for c-Jun phosphorylation in both cellular assay formats (c-Jun phosphorylation [3]; HeLa and A375 formats, tested in parallel): micromolar range | EC50 (c-Jun phosphorylation [3]): 2020 nM

CCC(=O)Nc1cccc(C(=O)Nc2ccc(Nc3nccc(-c4cccnc4)n3)cc2)c1 [JNK-IN-6]
KiNativ result for JNK after live cell treatment [4]: did not inhibit JNK activity | protection of JNK from labeling by ATP-biotin (JNK): incapable of protecting JNK from labeling by ATP-biotin; also recorded: no protection of JNK labeling | EC50 (c-Jun phosphorylation [1]; Homo sapiens, A-375): 1900 nM | IC50 (JNK3; Table 2): 148 nM | fold less potent biochemical IC50 (JNK3; on JNK1, 2, and 3, relative to JNK-IN-5): ~100 fold | EC50 (c-Jun phosphorylation [3]; Homo sapiens): 6760 nM | cellular IC50 fold higher than covalent analog JNK-IN-5 (c-Jun phosphorylation [3]; cellular c-Jun phosphorylation, relative to JNK-IN-5): 50 fold

CN(C)C/C=C/C(=O)Nc1cccc(C(=O)Nc2ccc(Nc3nccc(-c4cccnc4)n3)cc2)c1 [JNK-IN-7]
Kd or IC50 against eight additional kinases [5]: ≤ 100 nM | EC50 (phosphorylation of RSK): > 10000 nM | EC50 (phosphorylation of p38): > 10000 nM | IC50 (JNK1 [6]): 1.54 nM | number of kinases with binding inhibition of 95% or more [7]: approximately 14 kinases | EC50 (phosphorylation of Akt): > 10000 nM | EC50 (phosphorylation of STAT3): > 10000 nM | EC50 (phosphorylation of Erk): > 10000 nM | EC50 [8]: > 10000 nM | EC50 (phosphorylation of Msk1): > 10000 nM | EC50 (c-Jun phosphorylation [3]; Homo sapiens): 130 nM
